Experimental data reported in patent publication US20060223768A1, “Regulation of gene expression” (priority 2003, published 2006).

Tests used:
HCT116 p53+/+ cells = experiment: Apoptosis (annexin V FACS, DNA laddering, phase contrast) in HCT116 p53+/+ cells; format: cell-based, human
HCT116 p53−/− cells = experiment: Apoptosis (annexin V FACS, DNA laddering, phase contrast) in HCT116 p53−/− cells; format: cell-based, human; details: sulindac sulphide 120 μM, 24 and 48 hr
Procedure: HCT116 clones were cultured in DMEM with 10% FCS. All the cell clones were cultured with penicillin 100 units ml^−1 and streptomycin 100 μg ml^−1 at 37° C. in 5% CO2 in air. Other human colorectal cancer cells lines, also defective for DNA mismatch repair (see Branch et al., 1995), were:- LoVo and RKO (p53 wild type); DLD1, LS174T, SW48 and HT29 (all p53 mutant). For transfection the cells were trypsinised and sub-cultured into 6 well plates (10 cm^2) without antibiotics, 1.5×10^5 cells per well. Selected 21-nucleotide RNAs were synthesised and BPLC purified (MWG; Germany) and annealed into siRNA duplexes according to the instructions supplied. 24 h after sub-culture the cells were transfected with siRNA formulated into liposomes (Oligofectamine, Life Technologies) according to the manufacturer's instructions. […] The final volume of culture medium was 1.5 ml per well. Cells were harvested for analysis at various times thereafter as indicated in the results. Each experiment with HCT116 cells was carried out four or more times. Transfection efficiencies were established by transfecting with liposomes containing FITC-dextran (Jiang and Milner, 2002). […]
Cell growth curves were determined by cell counting. […] The fixed cells were pelleted, washed in PBS and resuspended in PBS containing 0.1 μg/ml propidium iodide with 200 U/ml RNase A and analysed by FACS. […]

Row | Structure (SMILES) | apoptosis induced by treatment with sulindac (HCT116 p53+/+ cells; p53+/+ cells, sulindac sulphide 120 μM, 24 and 48 hr) | apoptosis induced by treatment with sulindac (HCT116 p53−/− cells) | apoptosis by agents that activate p53 (HCT116 p53+/+ cells; HCT116 cells, Zhang et al., 2000 and results not shown)
1 | CC1=C(CC(=O)O)c2cc(F)ccc2/C1=C\c1ccc([S+](C)[O-])cc1 (stereo not drawn) [Sulindac, sulindac] | induced apoptosis | induced apoptosis | –
2 | O=c1[nH]cc(F)c(=O)[nH]1 [5′ FU, 5-fluorouracil] | – | – | induced
